In assay [1] the target is T1, MIF (Homo sapiens, UniProt P14174).
T1 construct: made in house; host or cells: Escherichia coli BL21, pET-20b(p) plasmid
T1 sequence (P14174 2-115 limits assumed): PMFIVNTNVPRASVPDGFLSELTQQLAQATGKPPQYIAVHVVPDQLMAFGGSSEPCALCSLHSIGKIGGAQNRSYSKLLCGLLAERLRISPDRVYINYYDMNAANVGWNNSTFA
As to the kind of experiment: MIF tautomerase activity assay (PP substrate, UV absorbance at 300 nm). In kind it is biochemical. As to conditions: for IC50: PP as substrate, 10 min preincubation, read-out: IC50, inhibition of MIF tautomerase activity. The protocol: Recombinant human MIF with a C-terminal His-tag was expressed and purified following methods published previously.[47] The inhibitory potency for MIF tautomerase activity of the 1-phenyl-1H-1,2,3-triazole-4-carboxamides was measured after pre-incubation with MIF. The MIF-catalyzed PP tautomerization was measured by the corresponding change in UV absorbance over the first 3 min of the reaction.[48] Initial screening of the inhibitory potency was performed at 10 μM inhibitor concentration.
Inhibition of the tautomerase activity and kinetics of MIF was measured using […] (PP) as a substrate. A stock solution was prepared by mixing PP in 50 mM ammonium acetate buffer and adjusted to pH 6.0 using 1.0 M NaOH to provide a concentration of 20 mM. This solution was incubated overnight at 37 °C to allow equilibration of the keto and enol forms and then stored at 4 °C. For the assay, MIF stock solution (10 μL, 70 μM) was diluted in 20 mL of the boric acid buffer (435 mM H3BO3, 1 mM EDTA, pH 6.2) to provide 35 nM solution. The enzyme activity was determined by premixing 192 μL of the MIF dilution with 8 μL of the inhibitors dissolved in DMSO (1 mM). This mixture was preincubated for 10 min. Next, 50 μL of the mixture was mixed with 50 μL of 2 mM PP solution in ammonium acetate buffer. Subsequently, MIF tautomerase activity was monitored by the formation of the borate–enol complex, which was measured by the increase in UV absorbance at 300 nm. The increase in UV absorbance was measured over the first 10 min of incubation using a BioTek Synergy H1 Hybrid plate reader. MIF tautomerase activity in the presence of blank DMSO was set to 100% enzyme activity. […] Data from the first 3 min were used to calculate the initial velocities. All of the graphs were prepared in GraphPad Prism.
For the IC50 measurements, 1 mM solutions of the compounds were double-diluted 10 times in DMSO and subsequently, the MIF tautomerase activity was determined by premixing 190 μL of the MIF dilution with 10 μL of the inhibitors. This mixture was preincubated for 10 min and mixed with the 2 mM PP solution as described above.

A further assay deals with HeLa cells. As to the kind of experiment: Cell viability (MTS) assay, MNNG-induced parthanatos. In kind it is cell-based. The conditions noted are these: MTS assay.
In assay [2] the target is MIF. Also noted: method as in PMID 32940040. As to conditions: competitive MIF tautomerase inhibitor; cited from earlier work.
The mark [3] stands for this setting: 10 μM inhibitor, activity without inhibitor set to 100%, mean, n = 3.

For orientation: remaining activity means the signal under treatment as a percentage of the control signal. As for `O=C(Nc1ccccc1)c1cn(-c2ccccc2)nn1` [Compound 6a, N,1-Diphenyl-1H-1,2,3-triazole-4-carboxamide], the remaining activity at 10 µM on MIF [1] (setting [3]) amounted to 84%.

For the compound `O=C(Nc1ccc(F)cc1)c1cn(-c2ccccc2)nn1` [Compound 6b, N-(4-Fluorophenyl)-1-phenyl-1H-1,2,3-triazole-4-carboxamide], the remaining activity at 10 µM at MIF [1] (setting [3]) was 65%. On the same count and under the same terms, as for `O=C(Nc1ccc(Br)cc1)c1cn(-c2ccccc2)nn1` [Compound 6c, N-(4-Bromophenyl)-1-phenyl-1H-1,2,3-triazole-4-carboxamide], the figure is 37%; as for `COc1ccccc1-n1cc(C(=O)Nc2ccc(Cl)cc2)nn1` [Compound 6d, N-(4-Chlorophenyl)-1-(2-methoxyphenyl)-1H-1,2,3-triazole-4-carboxamide], 87%.

Take `COc1ccccc1-n1cc(C(=O)NC(C)c2ccc(Br)cc2)nn1` (centres unmarked) [Compound 6e, N-(1-(4-Bromophenyl)ethyl)-1-(2-methoxyphenyl)-1H-1,2,3-triazole-4-carboxamide]: at MIF [1] (setting [3]), the remaining activity at 10 µM worked out at 79%. As to `CCc1ccc(-n2cc(C(=O)Nc3cccc(F)c3)nn2)cc1` [Compound 6f, 1-(4-Ethylphenyl)-N-(3-fluorophenyl)-1H-1,2,3-triazole-4-carboxamide], the remaining activity at 10 µM on MIF [1] (setting [3]) came out at 50%.

`Cc1ccc(-n2cc(C(=O)Nc3ccc(F)cc3)nn2)cc1C` [Compound 6g, 1-(3,4-Dimethylphenyl)-N-(4-fluorophenyl)-1H-1,2,3-triazole-4-carboxamide]: the remaining activity at 10 µM at MIF [1] (setting [3]) was found to be 54%. On to `O=C(NCCc1ccccc1Cl)c1cn(-c2ccc(Cl)c(Cl)c2)nn1` [Compound 6h, N-(2-Chlorophenethyl)-1-(3,4-dichlorophenyl)-1H-1,2,3-triazole-4-carboxamide], for which the remaining activity at 10 µM on MIF [1] (setting [3]) came to 65%. With `O=C(CCc1ccco1)NCc1cn(-c2ccc(Cl)c(Cl)c2)nn1` [Compound 6i], the remaining activity at 10 µM on MIF [1] (setting [3]) is 90%. Regarding `COC(=O)C(Cc1ccccc1)NC(=O)c1cn(-c2ccc(Cl)c(Cl)c2)nn1` (centres unmarked) [Compound 6j, Methyl-(1-(3,4-dichlorophenyl)-1H-1,2,3-triazole-4-carbonyl)phenylalaninate], on MIF [1] (setting [3]), the remaining activity at 10 µM stood at 58%. With `O=C(NC1CCCC1)c1cn(-c2ccc(Cl)c(Cl)c2)nn1` [Compound 6k, N-Cyclopentyl-1-(3,4-dichlorophenyl)-1H-1,2,3-triazole-4-carboxamide], on MIF [1] (setting [3]), the remaining activity at 10 µM is 50%. The same measure, in the same setting: with `O=C(NCc1ccco1)c1cn(-c2ccc(Cl)c(Cl)c2)nn1` [Compound 6l, 1-(3,4-Dichlorophenyl)-N-(furan-2-ylmethyl)-1H-1,2,3-triazole-4-carboxamide] the figure was 38%; with `COc1ccc(CNC(=O)c2cn(-c3ccc(Cl)c(Cl)c3)nn2)cc1OC` [Compound 6m, 1-(3,4-Dichlorophenyl)-N-(3,4-dimethoxybenzyl)-1H-1,2,3-triazole-4-carboxamide], 80%; with `N#Cc1cc(Cl)ccc1-n1cc(C(=O)Nc2ccc(F)cc2)nn1` [Compound 6n, 1-(4-Chloro-2-cyanophenyl)-N-(4-fluorophenyl)-1H-1,2,3-triazole-4-carboxamide], 47%. As to `CCc1ccc(NC(=O)c2cn(-c3ccc(F)cc3[N+](=O)[O-])nn2)cc1` [Compound 6p, N-(4-Ethylphenyl)-1-(4-fluoro-2-nitrophenyl)-1H-1,2,3-triazole-4-carboxamide], the remaining activity at 10 µM on MIF [1] (setting [3]) was 45%. Take `O=C(NCc1ccc(Cl)cc1)c1cn(-c2ccc(F)cc2)nn1` [Compound 6q, N-(4-Chlorobenzyl)-1-(4-fluorophenyl)-1H-1,2,3-triazole-4-carboxamide]: the remaining activity at 10 µM on MIF [1] (setting [3]) turned out to be 58%. Take `O=C(NCc1ccc(Cl)cc1)c1cn(-c2ccc(Cl)cc2)nn1` [Compound 6r, N-(4-Chlorobenzyl)-1-4-chlorophenyl-1H-1,2,3-triazole-4-carboxamide]: the remaining activity at 10 µM on MIF [1] (setting [3]) stood at 57%. Consider `O=C(NCCc1ccccc1)c1cn(-c2cccc(Cl)c2)nn1` [Compound 6s, 1-(3-Chlorophenyl)-N-phenethyl-1H-1,2,3-triazole-4-carboxamide], for which, at MIF [1] (setting [3]), the remaining activity at 10 µM is 40%. For `O=C(NCCc1ccccc1Cl)c1cn(-c2cccc(Cl)c2)nn1` [Compound 6t, N-(2-Chlorophenethyl)-1-(3-chlorophenyl)-1H-1,2,3-triazole-4-carboxamide], the remaining activity at 10 µM on MIF [1] (setting [3]) turned out to be 66%. On to `O=C(NCCc1ccccc1)c1cn(-c2cccc3ncccc23)nn1` [Compound 6u, N-Phenethyl-1-(quinolin-5-yl)-1H-1,2,3-triazole-4-carboxamide], for which the remaining activity at 10 µM at MIF [1] (setting [3]) was found to be 66%. As usually defined, the IC50 is the concentration at which inhibition is half-maximal. Regarding `Cc1ccc(-n2cc(C(=O)NCc3ccccc3)nn2)cc1C` [Compound 6v, N-Benzyl-1-(3,4-dimethylphenyl)-1H-1,2,3-triazole-4-carboxamide], at MIF [1] (setting [3]), the remaining activity at 10 µM came to 21%. Besides, the IC50 on MIF [1] was determined as 6500 ± 400 nM. On to `CC(NC(=O)c1cn(-c2ccc(C(=O)NC3CC3)cc2)nn1)c1ccccc1` (centres unmarked) [Compound 6w, 1-(4-(Cyclopropylcarbamoyl)phenyl)-N-(1-phenylethyl)-1H-1,2,3-triazole-4-carboxamide], for which, on MIF [1] (setting [3]), the remaining activity at 10 µM amounted to 39%. On to `O=C(Nc1ccccc1)c1ccc(-n2cc(C(=O)NCc3ccccc3)nn2)cc1` [Compound 6x, N-Benzyl-1-(4-(phenylcarbomyl)phenyl)-1H-1,2,3-triazole-4-carboxamide], for which, on MIF [1] (setting [3]), the remaining activity at 10 µM is 14%. Further, the IC50 on MIF [1] is 2500 ± 100 nM.

In the case of `COC(=O)CC1CC(c2ccc(O)cc2)=NO1` (centres unmarked) [ISO-1, reference compound], at MIF [1] (setting [3]), the remaining activity at 10 µM is 60%.

Usually Ki stands for a dissociation constant, usually derived from enzyme kinetics or from competition with a known ligand. With `COc1ccc(N2Cc3ccc(O)cc3OC2=O)cc1OC` [ZP143, reference compound], in the assay on HeLa cells, the “Protective effect in MNNG-induced parthanatos” value was “no protective effect”. In addition, the inhibition constant (Ki) on MIF [2] was 100 ± 10 nM. “N-(4-Bromophenyl)-1-(4-cyanophenyl)-1H-1,2,3-triazole-4-carboxamide [Compound 6o]”: the “Activity of MIF (%)” value on MIF [1] (setting [3]) worked out at 44%.

Values taken from PMC10350922, “Allosteric Inhibitors of Macrophage Migration Inhibitory Factor (MIF) Interfere with Apoptosis-Inducing Factor (AIF) Co-Localization to Prevent Parthanatos” (Journal of Medicinal Chemistry, 2023).
